Measurements taken from the supplement of paper PMC10307832.

Experiments:
Test in all cases: relative viability (nuclei count vs DMSO), 5 days (fraction); higher = more cells survive
Decitabine + Phenformin = compound: Nc1ncn([C@H]2C[C@H](O)[C@@H](CO)O2)c(=O)n1 [Decitabine] + N=C(N)NC(=N)NCCc1ccccc1 [Phenformin] (partner 250 µM)
In short: (§1)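 Lung cancer cell lines were pin-tool dosed in 1536-well plates on the day after seeding, with either a lone drug or a fixed anchor-drug dose plus five library-drug doses (not always all listed) in √10 steps. Nuclei were counted on 4× images after 5 days. Relative viability is the ratio of treated-well to vehicle-well nuclei counts, with each value a median of duplicate plates.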

[1] = compound: O=C(C[C@H]1NCCC[C@@H]1O)Cn1cnc2cc(Br)c(Cl)cc2c1=O (racemic) [Halofuginone] + CC(C)C[C@H](NC(=O)[C@H](Cc1ccccc1)NC(=O)c1cnccn1)B(O)O [Bortezomib] (partner 0.002 µM)
In short: as §1

Decitabine + Tozasertib = compound: Nc1ncn([C@H]2C[C@H](O)[C@@H](CO)O2)c(=O)n1 [Decitabine] + Cc1cc(Nc2cc(N3CCN(C)CC3)nc(Sc3ccc(NC(=O)C4CC4)cc3)n2)n[nH]1 [Tozasertib] (partner 0.1 µM)
In short: as §1

Cediranib + Lapatinib = compound: COc1cc2c(Oc3ccc4[nH]c(C)cc4c3F)ncnc2cc1OCCCN1CCCC1 [Cediranib] + CS(=O)(=O)CCNCc1ccc(-c2ccc3ncnc(Nc4ccc(OCc5cccc(F)c5)c(Cl)c4)c3c2)o1 [Lapatinib] (partner 2 µM)
In short: as §1

Cell Line: UMC-11
- relative viability (Decitabine + Phenformin; first compound 0.04 µM): 0.31
- relative viability (Decitabine + Phenformin; first compound 0.1265 µM): 0.32
- relative viability (Decitabine + Phenformin; first compound 0.4 µM): 0.308
- relative viability (Decitabine + Phenformin; first compound 1.265 µM): 0.266
- relative viability (Decitabine + Phenformin; first compound 4 µM): 0.274
- relative viability ([1]; first compound 0.001 µM): 0.683
- relative viability ([1]; first compound 0.003162 µM): 0.775
- relative viability ([1]; first compound 0.01 µM): 0.684
- relative viability ([1]; first compound 0.03162 µM): 0.689
- relative viability ([1]; first compound 0.1 µM): 0.645
- relative viability (Decitabine + Tozasertib; first compound 0.04 µM): 0.202
- relative viability (Decitabine + Tozasertib; first compound 0.1265 µM): 0.186
- relative viability (Decitabine + Tozasertib; first compound 0.4 µM): 0.186
- relative viability (Decitabine + Tozasertib; first compound 1.265 µM): 0.192
- relative viability (Decitabine + Tozasertib; first compound 4 µM): 0.183
- relative viability (Cediranib + Lapatinib; first compound 0.04 µM): 1.07
- relative viability (Cediranib + Lapatinib; first compound 0.1265 µM): 0.48
- relative viability (Cediranib + Lapatinib; first compound 0.4 µM): 0.938
- relative viability (Cediranib + Lapatinib; first compound 1.265 µM): 0.525
- relative viability (Cediranib + Lapatinib; first compound 4 µM): 0.963
